Key:
[1] = target: T1, IICB^Glc (Escherichia coli, UniProt P69786); assay: nanoDSF thermal shift (Tycho NT.[…]); assay type: binding; conditions: 10 mM ligand, 4 µM protein, 20 mM HEPES-NaOH pH 8.0, 150 mM NaCl, 5 mM β-ME, 0.02% DDM
T1 construct: gene ptsG; full-length wild type with decahistidine tag; overexpressed in E. coli BW25113 delta-arcB delta-ptsG; homodimer; purified in DDM (nanoDSF) or in MSP1E3D1/POPC nanodiscs (cryo-EM, IIB domain not resolved)

[2] = target: T1, IICB^Glc; assay: nanoDSF thermal shift (Tycho NT.[…]); assay type: binding; conditions: 10 mM ligand, 4 µM protein, 20 mM HEPES-NaOH pH 8.0, 150 mM NaCl, 5 mM β-ME, 0.02% DDM; remark: listed apart in the source

T1 sequence (P69786 whole entry, the tested form may be a part): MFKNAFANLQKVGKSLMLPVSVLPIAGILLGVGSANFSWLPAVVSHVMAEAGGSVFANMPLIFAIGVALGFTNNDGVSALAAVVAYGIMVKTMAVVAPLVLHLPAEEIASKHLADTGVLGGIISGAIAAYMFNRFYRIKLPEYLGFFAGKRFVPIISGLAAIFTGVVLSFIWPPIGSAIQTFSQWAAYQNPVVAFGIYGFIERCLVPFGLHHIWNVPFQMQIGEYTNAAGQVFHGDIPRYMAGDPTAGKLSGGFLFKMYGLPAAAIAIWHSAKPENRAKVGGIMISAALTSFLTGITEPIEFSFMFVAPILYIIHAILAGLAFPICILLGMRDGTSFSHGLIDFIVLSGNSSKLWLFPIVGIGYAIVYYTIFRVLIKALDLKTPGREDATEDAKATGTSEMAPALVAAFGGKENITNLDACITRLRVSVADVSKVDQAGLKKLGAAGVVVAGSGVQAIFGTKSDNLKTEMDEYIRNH

Row | ΔTi [2] | SMILES | ΔTi [1]
1 |  | COC1O[C@H](CO)[C@@H](O)[C@H](O)[C@H]1O (stereo partly shown) [1-O-methyl-glucose] | 1-deoxy-glucose and 1-O-methyl-glucose bound best
2 |  | OC[C@H]1OC[C@H](O)[C@@H](O)[C@@H]1O [1-deoxy-glucose] | 1-deoxy-glucose and 1-O-methyl-glucose bound best
3 | ~ almost 10 °C | OC[C@H]1OC(O)[C@H](O)[C@@H](O)[C@@H]1O (stereo partly drawn) [D-glucose] | 
4 |  | OC[C@H]1O[C@H](O[C@H]2[C@H](O)[C@@H](O)C(O)O[C@@H]2CO)[C@H](O)[C@@H](O)[C@@H]1O (stereo partly drawn) [D-maltose] | induced a slight stabilization of IICB^Glc

— paper PMC11393339, “Structure and mechanism of a phosphotransferase system glucose transporter” (Nature Communications, 2024)
